Assay results from US4623639A (Hoffmann-La Roche Inc., priority 1983, dated 1986).
pIC50: −log10 of the molar value. Counter-ions that a name gives are not always drawn.

How the values were obtained:
[1] = system: male mice; assay: Maximum tolerated dose test (no gross behavioural effects); format: in vivo; conditions: observed 6 hours and 24 hours after administration
Method: MAXIMUM TOLERATED DOSE TEST TEST METHOD
This test determines the maximum acute dose of a compound of this invention which causes no gross behavioural effects.
Groups of 3 male mice are administered 400 mg/kg and 100 mg/kg of a compound of this invention subcutaneously, intravenously or intraperitoneally. The mice are observed periodically during the 6 hours after the administration and 24 hours after the administration. Evidence of stimulation, sedation, loss of righting reflex, convulsions, tremor, death and other gross effects are noted. If effects are observed, the compound is tested at lower dosages in order to determine the no gross effect level. The results are expressed as the maximum dose administered in mg/kg which causes no gross behavioural effects.

[2] = target: T1, Human granulocyte elastase (Homo sapiens, UniProt P08246); assay: Assay of the inhibition of human granulocyte elastase (succinyl (Ala)3-p-nitroanilide cleavage); format: biochemical; conditions: succinyl (Ala)3-p-nitroanilide substrate, 0.2M Tris HCl pH 8.0, 37° C., 1 hour; read-out: IC50 (concentration required to give 50% inhibition)
T1 sequence (P08246 30-267): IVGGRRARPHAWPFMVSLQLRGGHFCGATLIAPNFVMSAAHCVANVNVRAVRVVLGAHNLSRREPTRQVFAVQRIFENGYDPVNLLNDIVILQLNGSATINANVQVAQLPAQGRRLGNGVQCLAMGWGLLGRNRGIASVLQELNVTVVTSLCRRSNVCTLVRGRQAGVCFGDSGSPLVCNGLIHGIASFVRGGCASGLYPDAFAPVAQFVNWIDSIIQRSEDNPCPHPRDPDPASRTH
Method: ASSAY OF THE INHIBITION OF HUMAN GRANULOCYTE ELASTASE TEST METHOD
This assay is based on the method of J. Bieth, B. Spiess and C. G. Wermuth, Biochem. 11, (1974), 350.
Succinyl (Ala)3 -p-nitroanilide (20 μl of a 125 mM solution in N-methylpyrrolidone) was diluted in buffer (3 ml, 0.2M Tris HCl, pH 8.0) and warmed to 37° C. Human granulocyte elastase (4 μg in 20 μl of buffer) was added to initiate the reaction, which was terminated after 1 hour at 37° C. by the addition of glacial acetic acid (100 μl). The p-nitroaniline released was determined by measuring the extinction of the solution at 410 nm by means of a spectrophotometer. The compounds of the present invention, in 50 μl of methanol, were added to the buffered substrate prior to the addition of the human granulocyte elastase and the substrate cleavage rate was compared with solvent controls. The concentration of compound of the present invention required to give 50% inhibition was determined.

`CC(C)CNC(=O)[C@@H]1CCCN1C(=O)[C@H](CCCCNC(=O)CCC(=O)O)NCCC12CC3CC(CC(C3)C1)C2` [N^α -(1-adamantylethyl)-N^ε -succinyl-L-lysyl-L-proline isobutylamide] was tested, and the “dosage at which no behavioural effects were observed” value ([1]; intraperitoneally) was 50 mg/kg and the pIC50 [2] was 5.35.
`CC(C)[C@@H](C=O)NC(=O)[C@@H]1CCCN1C(=O)[C@H](CCCCNC(=O)c1ccccc1C(=O)O)NS(=O)(=O)C12CC3CC(CC(C3)C1)C2` [N^α -(1-adamantylsulphonyl)-N^ε -(2-carboxybenzoyl)-L-lysyl-L-prolylvalinal] was tested, and the pIC50 [2] was 7.05.
In the case of `CC(C)[C@@H](C=O)NC(=O)[C@H](C)NC(=O)[C@H](CCCCNC(=O)c1ccc(C(=O)O)cc1)NS(=O)(=O)C12CC3CC(CC(C3)C1)C2` [N^α -(1-adamantylsulphonyl)-N^ε -(4-carboxybenzoyl)-L-lysyl-L-alanyl-L-valinal], the “dosage at which no behavioural effects were observed” value ([1]; intraperitoneally) was 100 mg/kg, the “dosage at which no behavioural effects were observed” value ([1]; intravenously) was 100 mg/kg and the “dosage at which no behavioural effects were observed” value ([1]; subcutaneously) was 400 mg/kg. It also gave a pIC50 [2] of 7.30.
In the case of `CC(C)[C@@H](C=O)NC(=O)[C@@H]1CCCN1C(=O)[C@H](CCCCNC(=O)c1ccc(C(=O)O)cc1)NS(=O)(=O)C12CC3CC(CC(C3)C1)C2` [N^α -(1-adamantylsulphonyl)-N^ε -(4-carboxybenzoyl)-L-lysyl-L-prolyl-L-valinal], the “dosage at which no behavioural effects were observed” value ([1]; intraperitoneally) was 100 mg/kg, the “dosage at which no behavioural effects were observed” value ([1]; intravenously) was 100 mg/kg and the “dosage at which no behavioural effects were observed” value ([1]; subcutaneously) was 400 mg/kg. It also gave a pIC50 [2] of 7.22.
Work on `CC(C)[C@@H](C=O)NC(=O)[C@@H]1CCCN1C(=O)[C@H](CCCCNC(=O)CCCCC(=O)O)NS(=O)(=O)C12CC3CC(CC(C3)C1)C2` [N^α -(1-adamantylsulphonyl)-N^ε -adipoyl-L-lysyl-L-prolylvalinal] yielded a pIC50 [2] of 7.10.
`CC(C)[C@@H](C=O)NC(=O)[C@H](C)NC(=O)[C@H](CCCCNC(=O)CCC(=O)O)NS(=O)(=O)C12CC3CC(CC(C3)C1)C2` [N^α -(1-adamantylsulphonyl)-N^ε -succinyl-L-lysyl-L-alanylvalinal] showed a pIC50 [2] of 6.92.
With `CC(C)[C@@H](C=O)NC(=O)[C@@H]1CCCN1C(=O)[C@H](CCCCNC(=O)CCC(=O)O)NS(=O)(=O)C12CC3CC(CC(C3)C1)C2` [N^α -(1-adamantylsulphonyl)-N^ε -succinyl-L-lysyl-L-prolyl-L-valinal] the “dosage at which no behavioural effects were observed” value ([1]; intravenously) was 100 mg/kg, the “dosage at which no behavioural effects were observed” value ([1]; subcutaneously) was 400 mg/kg and the pIC50 [2] was 7.10.
`CC(C)CNC(=O)[C@@H]1CCCN1C(=O)[C@H](CCCCNC(=O)CC[C@H](N)C(=O)O)NCCC1CCC2CC1C2(C)C` (some centres unmarked) [dihydrobromide] showed a pIC50 [2] of 4.80.
